Source: US11028079B2 (ConverGene LLC, priority 2015, dated 2021)

Biological target: T1, BRD4 bromodomains (Homo sapiens, UniProt O60885)
T1 construct: fused on or other part: T7 phage capsid protein (phage-display fusion; the phage DNA is read out by qPCR)
Assay: BROMOscan bromodomain competition binding assay (DiscoveRx)
Settings: Kd from 11 compound concentrations ranging from 0 to 10 μM, read-out: BROMOscan Relative Activity
Outline: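 Compounds in 0.1% DMSO/0.9% MEG competed with a solid-phase acetylated peptide for T7 phage-fused BRD4 bromodomains, with the retained bromodomain measured by qPCR.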

Kd	SMILES
< 500 nM	Cc1noc(C)c1-c1ccc2nc(C(=O)NCc3ncc[nH]3)nc(NCc3cccc(Cl)c3)c2c1 [Example 177, N-((1H-imidazol-2-yl)methyl)-4-((3-chlorobenzyl)amino)-6-(3,5-dimethylisoxazol-4-yl)quinazoline-2-carboxamide]
< 500 nM	Cc1noc(C)c1-c1ccc2nc(NCc3ncc[nH]3)nc(NCc3cccc(Cl)c3)c2c1 [Example 178, N2-((1H-imidazol-2-yl)methyl)-N4-(3-chlorobenzyl)-6-(3,5-dimethylisoxazol-4-yl)quinazoline-2,4-diamine]
< 500 nM	Cc1noc(C)c1-c1ccc2nc(C(=O)NCc3cncn3C)nc(NCc3cccc(Cl)c3)c2c1 [Example 183, 4-((3-chlorobenzyl)amino)-6-(3,5-dimethylisoxazol-4-yl)-N-((1-methyl-1H-imidazol-5-yl)methyl)quinazoline-2-carboxamide]
< 500 nM	Cc1noc(C)c1-c1ccc2nc(C(=O)NCc3cnn(C)c3)nc(NCc3cccc(Cl)c3)c2c1 [Example 186, 4-((3-chlorobenzyl)amino)-6-(3,5-dimethylisoxazol-4-yl)-N-((1-methyl-1H-pyrazol-4-yl)methyl)quinazoline-2-carboxamide]
< 500 nM	Cc1noc(C)c1-c1ccc2nc(C(=O)NCc3cc(Cl)ccn3)nc(NCc3cccc(Cl)c3)c2c1 [Example 188, 4-((3-chlorobenzyl)amino)-N-((4-chloropyridin-2-yl)methyl)-6-(3,5-dimethylisoxazol-4-yl)quinazoline-2-carboxamide]
< 500 nM	Cc1noc(C)c1-c1ccc2nc(C(=O)NCc3cccnc3)nc(NCc3cccc(Cl)c3)c2c1 [Example 189, 4-((3-chlorobenzyl)amino)-6-(3,5-dimethylisoxazol-4-yl)-N-(pyridin-3-ylmethyl)quinazoline-2-carboxamide]
< 500 nM	Cc1ccc(CNC(=O)c2nc(NCc3cccc(Cl)c3)c3cc(-c4c(C)noc4C)ccc3n2)cn1 [Example 197, 4-((3-chlorobenzyl)amino)-6-(3,5-dimethylisoxazol-4-yl)-N-((6-methylpyridin-3-yl)methyl)quinazoline-2-carboxamide]
< 500 nM	Cc1noc(C)c1-c1ccc2nc(C(=O)NCc3ccnc(Cl)c3)nc(NCc3cccc(Cl)c3)c2c1 [Example 202, 4-((3-chlorobenzyl)amino)-N-((2-chloropyridin-4-yl)methyl)-6-(3,5-dimethylisoxazol-4-yl)quinazoline-2-carboxamide]
< 500 nM	Cc1noc(C)c1-c1ccc2nc(C(=O)NCc3ccc(Cl)nc3)nc(NCc3cccc(Cl)c3)c2c1 [Example 203, 4-((3-chlorobenzyl)amino)-N-((6-chloropyridin-3-yl)methyl)-6-(3,5-dimethylisoxazol-4-yl)quinazoline-2-carboxamide]
< 500 nM	Cc1noc(C)c1-c1ccc2nc(C(=O)NCc3ccncc3Cl)nc(NCc3cccc(Cl)c3)c2c1 [Example 208, 4-((3-chlorobenzyl)amino)-N-((3-chloropyridin-4-yl)methyl)-6-(3,5-dimethylisoxazol-4-yl)quinazoline-2-carboxamide]

Second part, the compound before the results:

SMILES	Kd
Cc1noc(C)c1-c1ccc2nc(N3CCN(CCN(C)C)CC3)nc(N3CCC3c3ccccc3)c2c1 (centres unmarked) [Example 179, 2-(4-(6-(3,5-dimethylisoxazol-4-yl)-4-(2-phenylazetidin-1-yl)quinazolin-2-yl)piperazin-1-yl)-N,N-dimethylethanamine]	< 500 nM
Cc1noc(C)c1-c1ccc2nc(N3CCN(S(C)(=O)=O)CC3)nc(NC3(c4cccc(Cl)c4)CC3)c2c1 [Example 180, N-(1-(3-chlorophenyl)cyclopropyl)-6-(3,5-dimethylisoxazol-4-yl)-2-(4-(methylsulfonyl)piperazin-1-yl)quinazolin-4-amine]	< 500 nM
CNC(=O)Cn1cc(-c2nc(NC3(c4cccc(Cl)c4)CC3)c3cc(-c4c(C)noc4C)ccc3n2)cn1 [Example 181, 2-(4-(4-((1-(3-chlorophenyl)cyclopropyl)amino)-6-(3,5-dimethylisoxazol-4-yl)quinazolin-2-yl)-1H-pyrazol-1-yl)-N-methylacetamide]	< 500 nM
Cc1noc(C)c1-c1ccc2nc(-c3cnn(CC(C)(C)O)c3)nc(NC3(c4cccc(Cl)c4)CC3)c2c1 [Example 182, 1-(4-(4-((1-(3-chlorophenyl)cyclopropyl)amino)-6-(3,5-dimethylisoxazol-4-yl)quinazolin-2-yl)-1H-pyrazol-1-yl)-2-methylpropan-2-ol]	< 500 nM
CC(=O)N1CCN(c2nc(NCc3cccc(Cl)c3)c3cc(-c4c(C)noc4C)ccc3n2)CC1 [Example 184, 1-(4-(4-((3-chlorobenzyl)amino)-6-(3,5-dimethylisoxazol-4-yl)quinazolin-2-yl)piperazin-1-yl)ethanone]	< 500 nM
CC(=O)N1CCN(c2nc(NC3(c4cccc(Cl)c4)CC3)c3cc(-c4c(C)noc4C)ccc3n2)CC1 [Example 185, 1-(4-(4-((1-(3-chlorophenyl)cyclopropyl)amino)-6-(3,5-dimethylisoxazol-4-yl)quinazolin-2-yl)piperazin-1-yl)ethanone]	< 500 nM
Cc1ccncc1CNC(=O)c1nc(NCc2cccc(Cl)c2)c2cc(-c3c(C)noc3C)ccc2n1 [Example 187, 4-((3-chlorobenzyl)amino)-6-(3,5-dimethylisoxazol-4-yl)-N-((4-methylpyridin-3-yl)methyl)quinazoline-2-carboxamide]	< 500 nM
Cc1noc(C)c1-c1ccc2nc(C(=O)NCc3cnn(C)c3C)nc(NCc3cccc(Cl)c3)c2c1 [Example 190, 4-((3-chlorobenzyl)amino)-N-((1,5-dimethyl-1H-pyrazol-4-yl)methyl)-6-(3,5-dimethylisoxazol-4-yl)quinazoline-2-carboxamide]	< 500 nM
Cc1noc(C)c1-c1ccc2nc(C(=O)NCc3cncc(Cl)c3)nc(NCc3cccc(Cl)c3)c2c1 [Example 191, 4-((3-chlorobenzyl)amino)-N-((5-chloropyridin-3-yl)methyl)-6-(3,5-dimethylisoxazol-4-yl)quinazoline-2-carboxamide]	< 500 nM
Cc1noc(C)c1-c1ccc2nc(C(=O)NCc3cncc(F)c3)nc(NCc3cccc(Cl)c3)c2c1 [Example 192, 4-((3-chlorobenzyl)amino)-6-(3,5-dimethylisoxazol-4-yl)-N-((5-fluoropyridin-3-yl)methyl)quinazoline-2-carboxamide]	< 500 nM
Cc1cncc(CNC(=O)c2nc(NCc3cccc(Cl)c3)c3cc(-c4c(C)noc4C)ccc3n2)c1 [Example 193, 4-((3-chlorobenzyl)amino)-6-(3,5-dimethylisoxazol-4-yl)-N-((5-methylpyridin-3-yl)methyl)quinazoline-2-carboxamide]	< 500 nM
Cc1nn(C)c(C)c1CNC(=O)c1nc(NCc2cccc(Cl)c2)c2cc(-c3c(C)noc3C)ccc2n1 [Example 194, 4-((3-chlorobenzyl)amino)-6-(3,5-dimethylisoxazol-4-yl)-N-((1,3,5-trimethyl-1H-pyrazol-4-yl)methyl)quinazoline-2-carboxamide]	< 500 nM
CC(=O)N1CCN(c2nc(NCc3cncc(Cl)c3)c3cc(-c4c(C)noc4C)ccc3n2)CC1 [Example 195, 1-(4-(4-(((5-chloropyridin-3-yl)methyl)amino)-6-(3,5-dimethylisoxazol-4-yl)quinazolin-2-yl)piperazin-1-yl)ethanone]	< 500 nM
Cc1nc(CNC(=O)c2nc(NCc3cccc(Cl)c3)c3cc(-c4c(C)noc4C)ccc3n2)cs1 [Example 196, 4-((3-chlorobenzyl)amino)-6-(3,5-dimethylisoxazol-4-yl)-N-((2-methylthiazol-4-yl)methyl)quinazoline-2-carboxamide]	< 500 nM
Cc1noc(C)c1-c1ccc2nc(C(=O)NC3CN(C)C3)nc(NCc3cccc(Cl)c3)c2c1 [Example 198, 4-((3-chlorobenzyl)amino)-6-(3,5-dimethylisoxazol-4-yl)-N-(1-methylazetidin-3-yl)quinazoline-2-carboxamide]	< 500 nM
CC(=O)N1CCC(NC(=O)c2nc(NCc3cccc(Cl)c3)c3cc(-c4c(C)noc4C)ccc3n2)CC1 [Example 199, N-(1-acetylpiperidin-4-yl)-4-((3-chlorobenzyl)amino)-6-(3,5-dimethylisoxazol-4-yl)quinazoline-2-carboxamide]	< 500 nM
Cc1noc(C)c1-c1ccc2nc(C(=O)NCC3CN(C)C3)nc(NCc3cccc(Cl)c3)c2c1 [Example 200, 4-((3-chlorobenzyl)amino)-6-(3,5-dimethylisoxazol-4-yl)-N-((1-methylazetidin-3-yl)methyl)quinazoline-2-carboxamide]	< 500 nM
Cc1noc(C)c1-c1ccc2nc(C(=O)NC3CCN(S(C)(=O)=O)CC3)nc(NCc3cccc(Cl)c3)c2c1 [Example 201, 4-((3-chlorobenzyl)amino)-6-(3,5-dimethylisoxazol-4-yl)-N-(1-(methylsulfonyl)piperidin-4-yl)quinazoline-2-carboxamide]	< 500 nM
Cc1noc(C)c1-c1ccc2nc(C(=O)NC3CCS(=O)(=O)CC3)nc(NCc3cccc(Cl)c3)c2c1 [Example 204, 4-((3-chlorobenzyl)amino)-6-(3,5-dimethylisoxazol-4-yl)-N-(1,1-dioxidotetrahydro-2H-thiopyran-4-yl)quinazoline-2-carboxamide]	< 500 nM
Cc1nn(C)cc1CNC(=O)c1nc(NCc2cccc(Cl)c2)c2cc(-c3c(C)noc3C)ccc2n1 [Example 205, 4-((3-chlorobenzyl)amino)-N-((1,3-dimethyl-1H-pyrazol-4-yl)methyl)-6-(3,5-dimethylisoxazol-4-yl)quinazoline-2-carboxamide]	< 500 nM
Cc1noc(C)c1-c1ccc2nc(C(=O)NCc3ccnc(Cl)c3)nc(NCc3cncc(Cl)c3)c2c1 [Example 206, 4-(((5-chloropyridin-3-yl)methyl)amino)-N-((2-chloropyridin-4-yl)methyl)-6-(3,5-dimethylisoxazol-4-yl)quinazoline-2-carboxamide]	< 500 nM
Cc1noc(C)c1-c1ccc2nc(C(=O)NCc3ccncc3)nc(NCc3cncc(Cl)c3)c2c1 [Example 207, 4-(((5-chloropyridin-3-yl)methyl)amino)-6-(3,5-dimethylisoxazol-4-yl)-N-(pyridin-4-ylmethyl)quinazoline-2-carboxamide]	< 500 nM
